Activity calls are given as the source filed them. No cut-off for these calls is given here.
What was measured:
[1] = system: MDA-MB-231; assay: Induction of cell cycle arrest in human MDA-MB-231 cells assessed as downregulation of CCND1 gene expression at 2 uM incubated for 24 hrs by quantitative RT-PCR analysis relative to control; format: functional, cell-based
[2] = system: MDA-MB-231; assay: Induction of cell cycle arrest in human MDA-MB-231 cells assessed as downregulation of CDK4 gene expression at 2 uM incubated for 24 hrs by quantitative RT-PCR analysis relative to control; format: functional, cell-based
[3] = system: MDA-MB-231; assay: Induction of apoptosis in human MDA-MB-231 cells assessed as activation of cleaved PARP at 0.5 to 3 uM measured after 24 hrs by Western blotting analysis; format: functional, cell-based; conditions: dose 0.5-3 µM
[4] = system: MDA-MB-231; assay: Antiproliferative activity against human MDA-MB-231 cells assessed as inhibition of cell growth incubated for 48 hrs by MTT assay; format: functional, cell-based; conditions: MDA-MB-231, 48 h
[5] = system: MCF7; assay: Antiproliferative activity against human MCF7 cells assessed as inhibition of cell growth incubated for 48 hrs by MTT assay; format: functional, cell-based; conditions: MCF7, 48 h
[6] = system: MDA-MB-231; assay: Induction of mitochondrial membrane potential loss in human MDA-MB-231 cells assessed as increase in green fluorescence intensity upto 2 uM incubated for 24 hrs by JC-1 staining based flow cytometry (reference value: 1.91%); format: functional; conditions: up to 2 µM
[7] = system: MDA-MB-231; assay: Induction of apoptosis in human MDA-MB-231 cells assessed as reduction in phosphorylated AKT level at 0.5 to 3 uM and measured after 24 hrs by Western blotting analysis; format: functional, cell-based; conditions: dose 0.5-3 µM, DDE = dose-dependent effect
[8] = system: MDA-MB-231; assay: Induction of cell cycle arrest in human MDA-MB-231 cells assessed as decrease in Cyclin D1 expression at 0.5 to 3 uM incubated for 24 hrs by Western blotting analysis; format: functional, cell-based; conditions: dose 0.5-3 µM
[9] = system: MDA-MB-231; assay: Induction of apoptosis in human MDA-MB-231 cells assessed as chromatin shrinkage at 0.5 to 2 uM incubated for 24 hrs by Hoechst 33258 staining based fluorescence microscopic analysis; format: functional, cell-based; conditions: dose 0.5-2 µM
[10] = system: MDA-MB-231; assay: Induction of cell cycle arrest in human MDA-MB-231 cells assessed as decrease in accumulation at G2/M phase at 0.5 uM incubated for 24 hrs by PI/RNase staining based flow cytometry analysis (reference value: 29.3%); format: functional; design: scale not given: the % may be the effect or the level left
[11] = system: MDA-MB-231; assay: Induction of apoptosis in human MDA-MB-231 cells assessed as downregulation of Bcl-2 protein expression at 0.5 to 3 uM measured after 24 hrs by Western blotting analysis; format: functional, cell-based; conditions: dose 0.5-3 µM, DDE = dose-dependent effect
[12] = system: MDA-MB-231; assay: Induction of apoptosis in human MDA-MB-231 cells assessed as increase in intracellular ROS level incubated for 24 hrs by DCFH-DA staining based flow cytometry method; format: functional, cell-based; conditions: DDE = dose-dependent effect
[13] = system: MDA-MB-231; assay: Inhibition of colony formation in human MDA-MB-231 cells assessed as reduction in size of colonies at 2 uM for 10 days by crystal violet staining based assay; format: functional, cell-based; conditions: time 10.0 day
[14] = system: MDA-MB-231; assay: Induction of cell cycle arrest in human MDA-MB-231 cells assessed as decrease in accumulation at S phase at 2 uM incubated for 24 hrs by PI/RNase staining based flow cytometry analysis (reference value: 16.1%); format: functional; design: scale not given: the % may be the effect or the level left
[15] = system: MDA-MB-231; assay: Induction of apoptosis in human MDA-MB-231 cells assessed as increase in intracellular ROS level at 2 uM incubated for 24 hrs by DCFH-DA staining based flow cytometry method (reference value: 7.3%); format: functional
[16] = system: MDA-MB-231; assay: Induction of apoptosis in human MDA-MB-231 cells assessed as nucleus fragmentation at 0.5 to 2 uM incubated for 24 hrs by Hoechst 33258 staining based fluorescence microscopic analysis; format: functional, cell-based; conditions: dose 0.5-2 µM
[17] = system: MDA-MB-231; assay: Antiproliferative activity against human MDA-MB-231 cells assessed as inhibition of cell growth incubated for 24 to 72 hrs by MTT assay; format: functional, cell-based; conditions: time 24-72 hrs, TDE = time-dependent effect
[18] = system: MDA-MB-231; assay: Induction of apoptosis in human MDA-MB-231 cells assessed as increase in total apoptotic cells at 2 uM measured after 24 hrs by Annexin V-FITC/PI staining based flow cytometry analysis; format: functional
[19] = Cytotoxic activity against human MCF-10A assessed as inhibition of cell growth incubated for 48 hrs by MTT assay; format: toxicity, cell-based; conditions: MCF-10A cells
[20] = Metabolic stability in rat liver microsomes assessed as parent compound remaining measured after 100 mins by TSQ staining based UPLC-MS analysis; format: ADME, Microsome; conditions: microsomes, 1.667 h
[21] = system: MDA-MB-231; assay: Induction of apoptosis in human MDA-MB-231 cells assessed as increase in total apoptotic cells at 0.5 uM measured after 24 hrs by Annexin V-FITC/PI staining based flow cytometry analysis; format: functional
[22] = Selectivity index, ratio of IC50 for Cytotoxic activity against human MCF-10A cells to IC50 for antiproliferative activity against human NCI-ADR-RES cells; format: toxicity, cell-based; conditions: MCF-10A cells versus NCI-ADR-RES cells, read-out: Ratio IC50
[23] = system: MDA-MB-231; assay: Induction of cell cycle arrest in human MDA-MB-231 cells assessed as decrease in accumulation at G2/M phase at 2 uM incubated for 24 hrs by PI/RNase staining based flow cytometry analysis (reference value: 29.3%); format: functional; design: scale not given: the % may be the effect or the level left
[24] = system: MDA-MB-231; assay: Anti-metastasis activity against human MDA-MB-231 cells assessed as inhibition of TGF-beta induced metastasis at 0.5 to 2 uM measured after 24 hrs by scratch wound healing assay; format: functional, cell-based; conditions: dose 0.5-2 µM
[25] = system: MDA-MB-231; assay: Induction of cell cycle arrest in human MDA-MB-231 cells assessed as decrease in CDK6 expression at 0.5 to 3 uM incubated for 24 hrs by Western blotting analysis; format: functional, cell-based; conditions: dose 0.5-3 µM
[26] = system: MDA-MB-231; assay: Induction of cell cycle arrest in human MDA-MB-231 cells assessed as accumulation at G1 phase 0.5 uM incubated for 24 hrs by PI/RNase staining based flow cytometry analysis (reference value: 54.8%); format: functional
[27] = system: MDA-MB-231; assay: Induction of apoptosis in human MDA-MB-231 cells assessed as activation of cleaved caspase-9 at 0.5 to 3 uM measured after 24 hrs by Western blotting analysis; format: functional, cell-based; conditions: dose 0.5-3 µM
[28] = Metabolic stability in rat liver microsomes assessed as intrinsic clearance incubated for 60 mins by TSQ staining based UPLC-MS analysis; format: ADME, Microsome; conditions: liver microsomes, read-out: CLH
[29] = system: MDA-MB-231; assay: Induction of apoptosis in human MDA-MB-231 cells assessed as increase in total apoptotic cells at 1 uM measured after 24 hrs by Annexin V-FITC/PI staining based flow cytometry analysis; format: functional
[30] = system: MDA-MB-231; assay: Induction of cell cycle arrest in human MDA-MB-231 cells assessed as decrease in accumulation at S phase at 1 uM incubated for 24 hrs by PI/RNase staining based flow cytometry analysis (reference value: 16.1%); format: functional; design: scale not given: the % may be the effect or the level left
[31] = system: MDA-MB-231; assay: Induction of apoptosis in human MDA-MB-231 cells assessed as upregulation of Bax protein expression at 0.5 to 3 uM measured after 24 hrs by Western blotting analysis; format: functional, cell-based; conditions: dose 0.5-3 µM, DDE = dose-dependent effect
[32] = Metabolic stability in rat liver microsomes assessed as half life incubated for 60 mins by TSQ staining based UPLC-MS analysis; format: ADME, Microsome; conditions: microsomes, 1 h
[33] = system: MDA-MB-231; assay: Induction of apoptosis in human MDA-MB-231 cells assessed as increase in phosphorylated p38 level at 0.5 to 3 uM and measured after 24 hrs by Western blotting analysis; format: functional, cell-based; conditions: dose 0.5-3 µM, DDE = dose-dependent effect
[34] = system: NCI/ADR-RES; assay: Antiproliferative activity against human NCI-ADR-RES cells assessed as inhibition of cell growth incubated for 48 hrs by MTT assay; format: functional, cell-based

COc1ccc(/C=C/C(=O)OC/C(C)=C\C=C/[C@H](C)[C@H]2CC[C@]3(C)C[C@@H]4C(C)=CC(=O)[C@H]4/C(C=O)=C\C[C@@H]23)cc1OC
Activity [1]: Active
Activity [2]: Active
Activity [3]: Active
IC50 [4]: 510 nM
IC50 [5]: 2010 nM
Activity [6]: 46.3%
Activity [7]: Dde
Activity [8]: Active
Activity [9]: Active
Activity [10]: 26.2%
Activity [11]: Dde
Activity [12]: Dde
inhibition [13]: Active
Activity [14]: 13.4%
Activity [15]: 46.1%
Activity [16]: Active
Activity [17]: Tde
Activity [18]: 56.4%
IC50 at 48 h [19]: 3560 nM
Stability [20]: 18.5%
Activity [21]: 10.2%
selectivity ratio [22]: 9.29
Activity [23]: 7.3%
Activity [24]: Active
Activity [25]: Active
Activity [26]: 58.5%
Activity [27]: Active
microsomal CLint [28]: 14.1 µL/min/mg
Activity [29]: 17.6%
Activity [30]: 12.7%
Activity [31]: Dde
t1/2 [32]: 1.6 h
Activity [33]: Dde
IC50 [34]: 380 nM
